From publication PMC8111572 (Inorganic chemistry, 2020)
Like-named read-outs stand apart in the source and are kept apart here. Marks after values point to notes of the source that are not given here.

Columns and labels:
[1] = cited from earlier work
[2] = cited from earlier work; remark: listed apart in the source
pLu value = format: binding; settings: −log [M]free when [M]total = 10^−6 M and [L]total = 10^−5 M at pH = 7.4; calculated (Table S1)
[3] = Ligand protonation constants by potentiometric titration; format: physicochemical; settings: protonation constant, 25.0 °C, 0.1 M KCl
pLa value = format: binding; settings: −log [M]free when [M]total = 10^−6 M and [L]total = 10^−5 M at pH = 7.4; calculated (Table S1)
[4] = −log [M]free when [M]total = 10^−6 M and [L]total = 10^−5 M at pH = 7.4; cited from earlier work
[5] = protonation constant, cited from earlier work
[6] = −log [M]free when [M]total = 10^−6 M and [L]total = 10^−5 M at pH = 7.4; cited from earlier work; remark: listed apart in the source

## O=C(O)c1ccccn1 [pyridinium-2-carboxylic acid]
[1]
  pKa: 5.39

## O=C([O-])CN1CCN(CC(=O)[O-])CCN(CC(=O)[O-])CCN(CC(=O)[O-])CC1.[Gd+3] [Gd-DOTA]
[2]
  kex298 (water exchange rate constant): 4.1e+06 s⁻¹

## O=C(O)CN(CCOCCN(CC(=O)O)Cc1cccc(C(=O)O)n1)Cc1cccc(C(=O)O)n1 [Oxyaapa, 6,6’-(((oxybis(ethane-2,1-diyl))bis((carboxymethyl)azanediyl))bis(methylene))dipicolinic acid]
pLu value
  pLu: 21.1
[3]
  log K1: 8.47(4)
  log K2: 7.63(2)
  log K3: 3.66(4)
  log K4: 2.90(1)
  log K5: 1.77(12)
pLa value
  pLa: 18.5

## O=C([O-])CN(CCN(CC(=O)[O-])CC(=O)O)CCN(CC(=O)[O-])CC(=O)O.[Gd+3] [Gd-DTPA]
[2]
  kex298 (water exchange rate constant): 3.3e+06 s⁻¹

## O=C(O)CN(CCN(CC(=O)O)Cc1cccc(C(=O)O)n1)Cc1cccc(C(=O)O)n1 [Octapa]
[4]
  pLu: 19.8
[5]; 0.15 M NaCl
  log K1: 8.52
  log K2: 5.40
  log K3: 3.65
  log K4: 2.97
  log K5: 1.66
[5]; 0.16 M NaCl
  log K1: 8.58
  log K2: 5.43
  log K3: 3.75
  log K4: 3.08
  log K5: 2.21
[6]
  pLa: 19.7

## Cc1cccc(C)n1 [2,6-dimethylpyridinium cation]
[1]
  pKa: 6.7

## CN(CCOCCN(C)Cc1cccc(C(=O)O)n1)Cc1cccc(C(=O)O)n1 [OxyMepa, 6,6’-(((oxybis(ethane-2,1-diyl))bis(methylazanediyl))bis(methylene))dipicolinic acid]
[3]
  log K1: 8.72(1)
  log K2: 7.81(2)
  log K3: 3.09(2)
  log K4: 2.35(4)

## O=C(O)CN(Cc1cccc(CN(CC(=O)O)Cc2cccc(C(=O)O)n2)n1)Cc1cccc(C(=O)O)n1 [Pypa]
[4]
  pLu: 22.6
[6]
  pLa: 19.9

## O=C(O)CN(CCOCCN(CC(=O)O)CC(=O)O)CC(=O)O [OBETA]
[5]; 0.1 M KCl
  log K1: 9.34^e
  log K2: 8.62^e
  log K3: 3.19^e
  log K4: 2.19^e
  log K5: 1.77^e
